# Data: patent publication US10681911B2, “Anthelminthic composition” (AgResearch Limited, priority 2016, dated 2020)
# Key:
# [1] = system: nematode egg and larval stages in dung; assay: Mini dung egg hatch-survival assay; settings: treatments applied to fresh dung on days 0 through 7, harvested days 12-16
# Procedure: All the dung samples were then left until day 12 when the first replicates were harvested. The last replicate was sampled on day 16. Hatched larvae were separated from the dung and numerated via microscopic examination. Town supply tap water was used for solution preparation and used as the reference control treatment. Sodium hypochlorite was added to tap-water to form a bleach solution containing 5% w/v NaOCl.
# [2] = system: eggs of free-living parasitic nematodes; assay: Egg hatch assay
# Procedure: Approximately 125 eggs were place in 24 well plate wells and treatments applied. After 24 hours, unhatched eggs and larvae were numerated by microscopic examination. Town supply tap water was used for solution preparation and used as the reference control treatment Sodium hypochlorite was added to tap-water to form a bleach solution containing 5% w/v NaOCl […]
# [3] = format: physicochemical
# Haemonchus controtus L3 = assay: Petri-dish laboratory study of efficacy against L3; settings: for Measured efficacy: 24 ml solution, live L3 recovered by Baermann funnel, 10 replicates; for effectiveness in killing L3: result in words
# Haemonchus contortus L3 = settings: in vivo
molecule,measurement,setting,value
"OCl [Bleach, Sodium hypochlorite]",impact on nematode development in dung,[1],"small impact on all stage of the nematode development from the egg through to the L1, 2 and 3 stages"
same,effect on eggs and egg hatching,"[2]; after 24 hours, result in words",destroyed all the eggs
same,Average of % hatch,"[2]; approximately 125 eggs per well, after 24 hours",0.0%
same,Average of larvae,"[2]; approximately 125 eggs per well, larvae counted after 24 hours",0.0
same,Average of eggs,"[2]; approximately 125 eggs per well, unhatched eggs counted after 24 hours",0.3
"[Ca+2].[OH-].[OH-] [Ca(OH)2 0.1%, calcium hydroxide]",pH 0,[3],12.0
same,Measured efficacy,Haemonchus controtus L3; listed as Ca(OH)2 0.100%,93%
same,effectiveness in killing L3,Haemonchus controtus L3,effective in killing L3
same,impact on L3 numbers in faeces,Haemonchus contortus L3,Neither ammonium nitrate nor calcium hydroxide applied alone or in combination had any impact on L3 numbers in faeces
same,impact on L3 numbers on pasture,Haemonchus contortus L3,neither ammonium nitrate nor calcium hydroxide applied alone had any impact on L3 numbers on pasture
"[Ca+2].[OH-].[OH-] [Ca(OH)2 0.05%, calcium hydroxide]",pH 0,[3],11.6
same,Measured efficacy,Haemonchus controtus L3; listed as Ca(OH)2 0.050%,69%
"[Ca+2].[OH-].[OH-] [Ca(OH)2 0.013%, calcium hydroxide]",pH 0,[3],11.0
same,Measured efficacy,Haemonchus controtus L3,28%
"[Ca+2].[OH-].[OH-] [Ca(OH)2 0.025%, calcium hydroxide]",pH 0,[3],11.3
same,Measured efficacy,Haemonchus controtus L3,43%
ammonium nitrate [NH4NO3 1.75%],Measured efficacy,Haemonchus controtus L3,−39%
ammonium nitrate [NH4NO3 3.5%],Measured efficacy,Haemonchus controtus L3,12%
ammonium nitrate [NH4NO3 7%],Measured efficacy,Haemonchus controtus L3,72%
ammonium nitrate [NH4NO3 13.5%],Measured efficacy,Haemonchus controtus L3,97%
same,effectiveness in killing L3,Haemonchus controtus L3,effective in killing L3
